Test results published in ChEMBL document CHEMBL4270552, “4-(Phenoxy) and 4-(benzyloxy)benzamides as potent and selective inhibitors of mono-ADP-ribosyltransferase PARP10/ARTD10” (Eur J Med Chem, 2018).

Assays:
[1] = biological target: T1, Protein mono-ADP-ribosyltransferase PARP10 (Homo sapiens, UniProt Q53GL7); assay: Inhibition of C-terminal His-tagged human ARTD10 (809 to 1017 residues) expressed in Escherichia coli Rosetta2 (DE3) using SRPK2 as substrate after 13 hrs in presence of NAD+
T1 sequence (Q53GL7 whole entry): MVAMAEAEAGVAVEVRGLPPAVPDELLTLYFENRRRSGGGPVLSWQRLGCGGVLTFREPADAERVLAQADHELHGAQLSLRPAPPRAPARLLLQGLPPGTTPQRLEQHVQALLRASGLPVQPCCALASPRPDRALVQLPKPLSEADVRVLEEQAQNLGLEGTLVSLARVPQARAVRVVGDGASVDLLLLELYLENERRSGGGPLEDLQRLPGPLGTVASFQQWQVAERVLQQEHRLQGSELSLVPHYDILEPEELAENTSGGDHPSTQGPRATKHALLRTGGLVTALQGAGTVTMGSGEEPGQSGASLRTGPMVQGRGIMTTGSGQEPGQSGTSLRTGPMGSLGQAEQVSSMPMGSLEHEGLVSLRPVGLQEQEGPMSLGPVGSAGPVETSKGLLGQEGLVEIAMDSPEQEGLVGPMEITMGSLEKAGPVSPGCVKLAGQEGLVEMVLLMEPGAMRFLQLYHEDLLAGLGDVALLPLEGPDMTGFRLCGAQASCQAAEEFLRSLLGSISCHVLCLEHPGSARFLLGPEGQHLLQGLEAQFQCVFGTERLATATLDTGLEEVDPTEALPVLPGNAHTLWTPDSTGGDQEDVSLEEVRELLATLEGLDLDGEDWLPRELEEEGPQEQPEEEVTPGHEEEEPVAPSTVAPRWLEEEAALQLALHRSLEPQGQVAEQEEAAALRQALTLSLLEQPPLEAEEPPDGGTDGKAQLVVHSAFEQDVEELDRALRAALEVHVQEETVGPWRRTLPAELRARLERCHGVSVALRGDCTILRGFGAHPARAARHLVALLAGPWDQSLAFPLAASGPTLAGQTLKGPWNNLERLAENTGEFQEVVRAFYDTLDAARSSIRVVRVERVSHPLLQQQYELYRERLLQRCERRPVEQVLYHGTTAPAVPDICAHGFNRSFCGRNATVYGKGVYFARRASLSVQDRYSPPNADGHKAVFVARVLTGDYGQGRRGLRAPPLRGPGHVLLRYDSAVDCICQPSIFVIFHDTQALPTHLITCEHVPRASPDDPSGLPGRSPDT

[2] = biological target: T2, Protein mono-ADP-ribosyltransferase PARP10 (Homo sapiens) (UniProt Q53GL7); settings: U2OS
T2 sequence (whole entry): T1 sequence (Q53GL7 whole entry)
Description: Stabilization of ARTD10 in human U2OS cells assessed as increase in melting temperature at 10 uM by CESTA

Q: Which IC50 ([1]; read-out: IC50) does the source give for NC(=O)c1ccc(Oc2ccc(C(=O)O)cc2)cc1 here?
A: 180 nM

Q: What about the IC50 ([1]; read-out: pIC50 (converted)) of the same compound?
A: 186 nM

Q: With NC(=O)c1ccc(Oc2ccc(C=O)cc2)cc1 as the compound, how does the IC50 ([1]; read-out: IC50) read?
A: 710 nM

Q: And the Tm [2]?
A: 54 to 56 °C

Q: Which results are given for NC(=O)c1ccc(OCc2ccccc2F)cc1?
A: IC50 ([1]; read-out: IC50): 230 nM; IC50 ([1]; read-out: pIC50 (converted)): 234 nM; Tm [2]: 54 to 56 °C

Q: How did the IC50 ([1]; read-out: IC50) turn out when COc1ccc(C(N)=O)cc1 was run?
A: 2800 nM

Q: What about the IC50 ([1]; read-out: pIC50 (converted)) of the same compound?
A: 2750 nM
